Reference: patent US20220041681A1 (MEDIMMUNE LIMITED, priority 2016, published 2022)
≈ marks a conversion by molar mass, not a printed value. Where two headings read alike, the source gives them in different places. Numbered stars: 1 amine (or outer) side, 2 acyl side, 3 side chain; on linkers, the order of the positions; unused ones are H or OH. Side chains are listed from the residue outwards. Peptide text beside a SMILES is read from it. * marks the point of attachment. γGlu = O=C(O)[C@H](CCC(=O)[*:2])N[*:1]; Palmitoyl = CCCCCCCCCCCCCCCC(=O)*

What was measured:
Rat GlucR = target: T1, Rat GlucR (Rattus norvegicus, UniProt P30082); assay: cAMP assay in presence of serum albumin (assay 2), 3.2% rat serum albumin; type: cell-based; settings: relative potencies vs native ligands
T1 construct: expressed in transfected cells
Protocol: CHO cells with stable recombinant expression of the human, mouse or rat GlucR or GLP-t receptor were cultured in DMEM 10% FBS and geneticin (100 μg/mil). Cryopreserved cell stocks were prepared in 1× cell freezing medium-DMSO serum free (Sigma Aldrich) at 2×10^7/vial and stored at […]. […] Peptides were serially diluted in DMSO and then diluted 100 fold into DMEM containing serum albumin at stated final concentration. […] Cells were added to the assay plates and incubated for 30 min at room temperature. Following incubation the assay was stopped and cAMP levels measured using the HTRF® dynamic d2 cAMP assay kit available from CisBio Bioassays, as per the manufacturer's guidelines. Plates were read on Perkin Elmer ENVISION® fluorescence plate readers. Human and rat serum albumin were purchased from Sigma Aldrich and mouse serum albumin from Equitech Bio Ltd.

human serum albumin = human serum albumin (Homo sapiens, UniProt P02768); assay: Fraction of free peptide calculated from variation in cAMP generation with HSA concentration; settings: calculated from cAMP generation vs HSA concentration
Source text: Data was transformed to % Delta F as described in manufacturer's guidelines and analysed by 4-parameter logistic fit to determine EC50 values. […] To compare the balance of activities at the GLP1R and GlucR between different peptides and across different conditions, these can be correlated using the calculation below, where the EC50's are related to those of the natural ligands.

[1] = Stability testing of peptides in plasma; type: in vitro ADME, mouse
Protocol: (§1) Stability testing of peptides in plasma.
(§2) Stock solutions of the peptides of about 200 μmol/L was prepared by weighing solid peptide into a Eppendorf Low Bind Tube and dissolved in DMSO. 10 μL of stock solutions were added to 990 μL of plasma in an Eppendorf Low Bind Tube, resulting in initial concentrations of the peptides in plasma of about 2 μmol/L. The frozen blank plasma from human, rat and mouse had been thawed and heated to a temperature of 37° C. before addition of the stock solution. The spiked plasma samples were gently mixed and allowed to equilibrate for about 5 minutes before start of experiment. The plasma samples were incubated for 48 hours in a GalaxyR CO2 incubator at 37° C. Sampling (30 μL) was performed at 0, 1, 2, 6.5, 17, 24 and 48 hours. The samples were stored at −70° C. until analysis.
(§3) Plasma samples were assayed as follows. The 30 μL plasma samples were protein precipitated with […] of cold ethanol in a 96-well low bind plate (Eppendorf Protein LoBind). After mixing and centrifugation, 100 μl the supernatant was transferred to a new plate and 1 μl was injected onto an analytical column.
(§4) The analysis was performed using a μLC-system (LC Exigent μLC) coupled to a medium high resolution mass spectrometer (Perkin Elmer PenTOF) with positive electrospray ionisation. The analytical column was a 5 cm, 1 mm Agilent Poroshell (custom made) C18-column with a particle size of 2.7 μm. Flow: 0.1 ml/min using a slow reversed phase gradient. Mobile phases used were acetonitrile and water containing 0.1% formic acid.
The resulting data were manually evaluated for the following degradation products: +1 product (acid) and the DPP IV-cleavage product. Products with +1 mass may arise from deamidation at amide groups of glutamine or at the C-terminus. Cleavage products arise from the action of the protease DPP IV in plasma. Both the degradation of the peptides and formation of peptide products were reported in percentage of the initial peptide concentration. Peaks were integrated and % remaining peptide was calculated: (peak area/peak area 0H)*100. […]

[2] = type: in vitro ADME, human
Protocol: as §1, §2, §3, §4
The resulting data were manually evaluated for the following degradation products: +1 product (acid) and the DPP IV-cleavage product. Products with +1 mass may arise from deamidation at amide groups of glutamine or at the C-terminus. Cleavage products arise from the action of the protease DPP IV in plasma. Both the degradation of the peptides and formation of peptide products were reported in percentage of the initial peptide concentration. Peaks were integrated and % remaining peptide was calculated: (peak area/peak area 0H)*100. Levels of deamidation and DPP IV cleavage were low for G797 and G933.

[3] = type: in vitro ADME, rat
Protocol: as §1, §2
as §3, with “column. […]” for “column.”
The resulting data were manually evaluated for the following degradation products: +1 product (acid) and the DPP IV-cleavage product. […] Peaks were integrated and % remaining peptide was calculated: (peak area/peak area 0H)*100. […]

[4] = Peptide solubility in buffers (A280); type: physicochemical; settings: target 1 mg/ml, read-out: Conc. (A280), solubility
Source text: G7310 was soluble in a pH range of 4.5 to 8.0.

[5] = tested on: diet induced obesity (DIO) mouse model; assay: Diet induced obesity (DIO) mouse model, study A; type: in vivo; settings: for BeHy / Insulin / Plasma NEFA: day 14
Source text: Female C57/Bl6JHsdOla (obtained from Harlan Laboratories. UK) were started on a high fat diet of D12492 (Research Diets, NJ, USA) and a chocolate confection, delicato ball (Delicata Bakverk, Sweden) at 9-11 weeks of age, and were maintained on the diet for 16 weeks prior to arrival to the animal facility, during a three week acclimation period and during drug treatment, caloric content of the two components of the diet is shown in Table 11. The mice were divided into 9 groups (n=5-6), and treatment was started at 29 weeks of age.
The body weight of the animals was monitored daily throughout die dosing period. At day 14, blood samples for the measurement of plasma glucose and insulin from conscious mice were obtained after a 4-hour fasting period. Mice were then anaesthetized using isofluorane and terminal blood was collected from the capillary bed behind the eye. The following parameters were measured: blood chemistry measurements of triglycerides, total cholesterol, non-esterified fatty acids (NEFA), beta-hydroxybutyrate and fibroblast growth factor 21 (FGF21) (Tables 14 and 15 below).

[6] = Peptide solubility in isotonic formulations (DF, BF1, BF2); settings: formulation DF (DF/BF1 for G797)
Protocol: Formulations. Peptide solubility was assessed in three different isotonic formulations: • 1. […] Final formulation pH=7.2 • 2. Back up formulation 1 (BF1)=0.05M Tris, 50 nM Arginine/Proline. Final formulation pH=8.0 • 3. […] Final formulation pH=7.0

human serum albumin, sequence (P02768 25-609): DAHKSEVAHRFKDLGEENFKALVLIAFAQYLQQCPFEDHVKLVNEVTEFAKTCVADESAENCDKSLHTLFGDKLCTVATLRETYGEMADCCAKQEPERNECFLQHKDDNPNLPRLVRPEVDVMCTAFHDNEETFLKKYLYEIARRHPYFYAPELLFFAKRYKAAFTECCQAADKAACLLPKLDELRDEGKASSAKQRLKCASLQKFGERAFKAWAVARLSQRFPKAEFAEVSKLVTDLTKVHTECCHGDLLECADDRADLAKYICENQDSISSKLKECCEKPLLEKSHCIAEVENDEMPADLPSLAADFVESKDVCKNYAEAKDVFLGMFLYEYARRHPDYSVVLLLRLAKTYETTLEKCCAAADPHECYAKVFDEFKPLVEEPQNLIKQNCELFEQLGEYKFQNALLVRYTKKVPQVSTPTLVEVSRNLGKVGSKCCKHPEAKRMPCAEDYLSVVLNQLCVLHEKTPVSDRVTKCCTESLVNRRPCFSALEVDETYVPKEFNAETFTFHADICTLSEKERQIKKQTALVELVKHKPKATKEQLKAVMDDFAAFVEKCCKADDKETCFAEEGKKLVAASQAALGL
T1 sequence (P30082 27-485): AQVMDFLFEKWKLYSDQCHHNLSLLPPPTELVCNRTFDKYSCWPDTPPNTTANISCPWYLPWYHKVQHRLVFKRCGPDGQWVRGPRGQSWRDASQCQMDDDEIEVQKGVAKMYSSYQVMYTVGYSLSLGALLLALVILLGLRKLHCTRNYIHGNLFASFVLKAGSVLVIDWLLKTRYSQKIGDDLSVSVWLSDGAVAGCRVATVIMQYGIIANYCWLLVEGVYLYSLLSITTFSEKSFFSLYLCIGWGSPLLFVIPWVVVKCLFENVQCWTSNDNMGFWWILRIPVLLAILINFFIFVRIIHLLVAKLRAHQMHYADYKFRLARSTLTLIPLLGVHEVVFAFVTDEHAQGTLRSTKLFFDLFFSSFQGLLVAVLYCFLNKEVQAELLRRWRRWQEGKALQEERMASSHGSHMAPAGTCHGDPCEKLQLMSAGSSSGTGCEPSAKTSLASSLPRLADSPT

CCCCCCCCCCCCCCCC(=O)N[C@@H](CCC(=O)NCCCC[C@H](NC(=O)[C@H](CCCCN)NC(=O)[C@H](CO)NC(=O)[C@H](Cc1ccc(O)cc1)NC(=O)[C@H](CC(=O)O)NC(=O)[C@H](CO)NC(=O)[C@@H](NC(=O)[C@H](Cc1ccccc1)NC(=O)[C@@H](NC(=O)CNC(=O)[C@H](CCC(N)=O)NC(=O)[C@H](CO)NC(=O)[C@@H](N)Cc1c[nH]cn1)[C@@H](C)O)[C@@H](C)O)C(=O)N[C@@H](CC(C)C)C(=O)N[C@@H](CC(=O)O)C(=O)N[C@@H](CO)C(=O)N[C@@H](CCC(=O)O)C(=O)N[C@@H](CCCNC(=N)N)C(=O)N[C@@H](C)C(=O)N[C@@H](CCCNC(=N)N)C(=O)N[C@@H](CC(=O)O)C(=O)N[C@@H](Cc1ccccc1)C(=O)N[C@H](C(=O)N[C@@H](C)C(=O)N[C@@H](Cc1c[nH]c2ccccc12)C(=O)N[C@@H](CC(C)C)C(=O)N[C@H](C(=O)N[C@@H](C)C(=O)NCC(=O)NCC(N)=O)C(C)C)C(C)C)C(=O)O [Peptide G730] (H-HSQGTFTSDYSKK([γGlu-Palmitoyl])LDSERARDFVAWLVAGG-NH2; N-terminus assumed)
Rat GlucR/GLP1R Ratio (Rat GlucR): 0.05
free peptide at 4.4% HSA (human serum albumin): 0.85%
% +1 prod [1]: 15%
% stable peptide ([1]; mouse plasma, 37° C., 24 h): 65%
% +1 prod [2]: <1%
% DPP cleaved product/+1 DPP cleaved product [2]: <1%
% DPP cleaved product/+1 DPP cleaved product [3]: 2%
solubility ([4]; Tris buffer, Tris pH 7.5, 100 mM): 830 µg/mL (≈ 225 µM)
solubility ([4]; Tris buffer, Tris pH 8.0, 100 mM): 1100 µg/mL (≈ 298 µM)
solubility ([4]; glutamate buffer, Glutamate pH 4.5, 100 mM): 830 µg/mL (≈ 225 µM)
solubility ([4]; phosphate buffer, Phosphate pH 6, 100 mM): 140 µg/mL (≈ 37.9 µM)
solubility ([4]; phosphate buffer, Phosphate pH 6.5, 100 mM): 830 µg/mL (≈ 225 µM)
solubility ([4]; phosphate buffer, Phosphate pH 7.5, 100 mM): 850 µg/mL (≈ 230 µM)
BeHy ([5]; 10 nmol/kg): 426 u mol/l
Insulin ([5]; 10 nmol/kg): 0.4 nM
Plasma NEFA ([5]; 10 nmol/kg): 0.28 Mm
BeHy ([5]; 20 nmol/kg): 750 u mol/l
Insulin ([5]; 20 nmol/kg): 0.2 nM
Plasma NEFA ([5]; 20 nmol/kg): 0.26 Mm
BeHy ([5]; 50 nmol/kg): 1477 u mol/l
Insulin ([5]; 50 nmol/kg): 0.3 nM
Plasma NEFA ([5]; 50 nmol/kg): 0.32 Mm
body weight over the 14 day dosing period ([5]; study A, in words): dose dependent and continuous weight loss
glucose levels at day 14 ([5]; study A, in words): dose-dependent reduction in glucose levels
Formulation Concentration [6]: 5 mg/mL
